According to PubChem BioAssay AID256 (DTP/NCI, 2004):
Several values for one entry are separate records, joined by “and”; a condition that tells them apart may be missing. Equal values may be shown once. Toxic doses and inconclusive results are not listed. How the source made its calls: active means survival T/C of 150% or more; inactive means T/C below 125% in these data.

System: CD2F1 mice, L1210 leukemia ip, survival T/C
Assay: NCI In Vivo Anticancer Drug Screen. Data for tumor model L1210 Leukemia (intraperitoneal) in CD2F1 (CDF1) mice
Conditions: higher = longer survival
Outline: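 Implant tumor; dose compound or vehicle; measure endpoint in both groups; report treated divided by control.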

Measured: T/C

COc1cccc2c1C(=O)c1c(O)c3c(c(O)c1C2=O)C[C@@](O)(C(C)=O)C[C@@H]3OC1CC(N)C(O)C(C)O1 (some centres undefined)
inactive: endpoint: mean survival time, dose: 0.06 mg/kg/injection, schedule: Q01DX009 (ip), vehicle: saline 103 % of control | endpoint: mean survival time, dose: 0.13 mg/kg/injection, schedule: Q01DX009 (ip), vehicle: saline 103 % of control | endpoint: mean survival time, dose: 0.2 mg/kg/injection, schedule: Q01DX009 (ip), vehicle: saline 105 % of control | endpoint: mean survival time, dose: 0.2 mg/kg/injection, schedule: Q01DX009 (ip), vehicle: water 100 % of control and 103 % of control and 108 % of control | endpoint: mean survival time, dose: 0.25 mg/kg/injection, schedule: Q01DX005 (ip), vehicle: water 101 % of control | endpoint: mean survival time, dose: 0.25 mg/kg/injection, schedule: Q01DX009 (ip), vehicle: saline 113 % of control and 120 % of control and 105 % of control | endpoint: mean survival time, dose: 0.39 mg/kg/injection, schedule: Q01DX009 (ip), vehicle: saline 119 % of control and 106 % of control | endpoint: mean survival time, dose: 0.39 mg/kg/injection, schedule: Q01DX009 (ip), vehicle: water 101 % of control and 110 % of control and 112 % of control | endpoint: mean survival time, dose: 0.5 mg/kg/injection, schedule: Q01DX005 (ip), vehicle: water 117 % of control and 108 % of control and 110 % of control | endpoint: mean survival time, dose: 0.5 mg/kg/injection, schedule: Q04DX003 (ip), vehicle: water 116 % of control and 98 % of control | endpoint: mean survival time, dose: 0.78 mg/kg/injection, schedule: Q01DX009 (ip), vehicle: saline 116 % of control | endpoint: mean survival time, dose: 0.78 mg/kg/injection, schedule: Q01DX009 (ip), vehicle: water 117 % of control and 120 % of control and 103 % of control | endpoint: mean survival time, dose: 1.0 mg/kg/injection, schedule: Q01DX005 (ip), vehicle: water 118 % of control and 112 % of control | endpoint: mean survival time, dose: 1.0 mg/kg/injection, schedule: Q03DX003 (ip), vehicle: saline 119 % of control | endpoint: mean survival time, dose: 1.0 mg/kg/injection, schedule: Q04DX003 (ip), vehicle: water 105 % of control | endpoint: mean survival time, dose: 1.08 mg/kg/injection, schedule: Q04DX003 (ip), vehicle: saline 120 % of control | endpoint: mean survival time, dose: 1.25 mg/kg/injection, schedule: Q07DX Z (oral), vehicle: clinical formulation 97 % of control | endpoint: mean survival time, dose: 1.25 mg/kg/injection, schedule: Q#B X Z (oral), vehicle: clinical formulation 102 % of control | endpoint: mean survival time, dose: 1.56 mg/kg/injection, schedule: Q01DX009 (ip), vehicle: saline 117 % of control | endpoint: mean survival time, dose: 1.56 mg/kg/injection, schedule: Q01DX009 (ip), vehicle: water 121 % of control and 106 % of control | endpoint: mean survival time, dose: 1.68 mg/kg/injection, schedule: Q01DX001 (ip), vehicle: water 124 % of control | endpoint: mean survival time, dose: 1.8 mg/kg/injection, schedule: Q04DX003 (ip), vehicle: saline 120 % of control | endpoint: mean survival time, dose: 2.0 mg/kg/injection, schedule: Q01DX005 (ip), vehicle: water 121 % of control and 124 % of control | endpoint: mean survival time, dose: 2.0 mg/kg/injection, schedule: Q03DX003 (ip), vehicle: saline 122 % of control | endpoint: mean survival time, dose: 2.0 mg/kg/injection, schedule: Q04DX003 (ip), vehicle: water 123 % of control and 102 % of control | endpoint: mean survival time, dose: 2.5 mg/kg/injection, schedule: Q01DX001 (ip), vehicle: water 118 % of control and 123 % of control and 112 % of control | endpoint: mean survival time, dose: 2.5 mg/kg/injection, schedule: Q07DX Z (oral), vehicle: clinical formulation 97 % of control | endpoint: mean survival time, dose: 2.5 mg/kg/injection, schedule: Q#B X Z (oral), vehicle: clinical formulation 94 % of control | endpoint: mean survival time, dose: 3.0 mg/kg/injection, schedule: Q01DX009 (ip), vehicle: saline 117 % of control | endpoint: mean survival time, dose: 3.0 mg/kg/injection, schedule: Q04DX003 (ip), vehicle: saline 115 % of control | endpoint: mean survival time, dose: 3.13 mg/kg/injection, schedule: Q01DX009 (ip), vehicle: water 117 % of control and 96 % of control | endpoint: mean survival time, dose: 4.0 mg/kg/injection, schedule: Q01DX005 (ip), vehicle: water 120 % of control and 105 % of control | endpoint: mean survival time, dose: 4.0 mg/kg/injection, schedule: Q01DX007 (ip), vehicle: saline 110 % of control | endpoint: mean survival time, dose: 4.0 mg/kg/injection, schedule: Q03DX003 (ip), vehicle: saline 116 % of control | endpoint: mean survival time, dose: 4.0 mg/kg/injection, schedule: Q04DX003 (ip), vehicle: water 100 % of control | endpoint: mean survival time, dose: 4.67 mg/kg/injection, schedule: Q01DX009 (ip), vehicle: water 108 % of control | endpoint: mean survival time, dose: 5.0 mg/kg/injection, schedule: Q01DX001 (ip), vehicle: water 120 % of control and 104 % of control | endpoint: mean survival time, dose: 5.0 mg/kg/injection, schedule: Q04DX003 (ip), vehicle: saline 120 % of control | endpoint: mean survival time, dose: 5.0 mg/kg/injection, schedule: Q07DX Z (oral), vehicle: clinical formulation 97 % of control | endpoint: mean survival time, dose: 5.0 mg/kg/injection, schedule: Q#B X Z (oral), vehicle: clinical formulation 97 % of control | endpoint: mean survival time, dose: 6.25 mg/kg/injection, schedule: Q01DX009 (ip), vehicle: saline 97 % of control | endpoint: mean survival time, dose: 8.0 mg/kg/injection, schedule: Q01DX001 (ip), vehicle: water 109 % of control | endpoint: mean survival time, dose: 8.0 mg/kg/injection, schedule: Q01DX009 (ip), vehicle: saline 100 % of control | endpoint: mean survival time, dose: 8.0 mg/kg/injection, schedule: Q04DX003 (ip), vehicle: saline 119 % of control | endpoint: mean survival time, dose: 8.0 mg/kg/injection, schedule: Q04DX003 (ip), vehicle: water 123 % of control | endpoint: mean survival time, dose: 10.0 mg/kg/injection, schedule: Q01DX001 (ip), vehicle: water 118 % of control and 112 % of control | endpoint: mean survival time, dose: 10.0 mg/kg/injection, schedule: Q07DX Z (oral), vehicle: clinical formulation 102 % of control | endpoint: mean survival time, dose: 10.0 mg/kg/injection, schedule: Q#B X Z (oral), vehicle: clinical formulation 108 % of control | endpoint: mean survival time, dose: 20.0 mg/kg/injection, schedule: Q01DX001 (ip), vehicle: water 89 % of control and 96 % of control | endpoint: mean survival time, dose: 20.0 mg/kg/injection, schedule: Q07DX Z (oral), vehicle: clinical formulation 100 % of control | endpoint: mean survival time, dose: 20.0 mg/kg/injection, schedule: Q#B X Z (oral), vehicle: clinical formulation 94 % of control | endpoint: mean survival time, dose: 40.0 mg/kg/injection, schedule: Q01DX001 (ip), vehicle: saline 62 % of control | endpoint: mean survival time, dose: 40.0 mg/kg/injection, schedule: Q07DX Z (oral), vehicle: clinical formulation 103 % of control | endpoint: mean survival time, dose: 40.0 mg/kg/injection, schedule: Q#B X Z (oral), vehicle: clinical formulation 103 % of control | endpoint: mean survival time, dose: 39.0 micrograms/kg/injection, schedule: Q01DX010 (oral), vehicle: saline 102 % of control | endpoint: mean survival time, dose: 78.0 micrograms/kg/injection, schedule: Q01DX010 (oral), vehicle: saline 102 % of control | endpoint: mean survival time, dose: 156.0 micrograms/kg/injection, schedule: Q01DX010 (oral), vehicle: saline 98 % of control | endpoint: mean survival time, dose: 313.0 micrograms/kg/injection, schedule: Q01DX010 (oral), vehicle: saline 102 % of control | endpoint: mean survival time, dose: 625.0 micrograms/kg/injection, schedule: Q01DX010 (oral), vehicle: saline 104 % of control | endpoint: mean survival time, dose: 1250.0 micrograms/kg/injection, schedule: Q01DX010 (oral), vehicle: saline 101 % of control | endpoint: median survival time, dose: 0.25 mg/kg/injection, schedule: Q01DX005 (iv), vehicle: water 112 % of control | endpoint: median survival time, dose: 0.5 mg/kg/injection, schedule: Q01DX005 (iv), vehicle: water 100 % of control | endpoint: median survival time, dose: 0.5 mg/kg/injection, schedule: Q04DX003 (ip), vehicle: water 99 % of control | endpoint: median survival time, dose: 1.0 mg/kg/injection, schedule: Q01DX005 (iv), vehicle: water 106 % of control | endpoint: median survival time, dose: 1.0 mg/kg/injection, schedule: Q04DX003 (ip), vehicle: water 99 % of control | endpoint: median survival time, dose: 2.0 mg/kg/injection, schedule: Q01DX005 (iv), vehicle: water 112 % of control | endpoint: median survival time, dose: 2.0 mg/kg/injection, schedule: Q04DX003 (ip), vehicle: water 100 % of control | endpoint: median survival time, dose: 4.0 mg/kg/injection, schedule: Q04DX003 (ip), vehicle: water 107 % of control | endpoint: median survival time, dose: 16.0 mg/kg/injection, schedule: Q04DX003 (ip), vehicle: water 109 % of control

O=C(Cc1ccccc1[N+](=O)[O-])NCC1(c2cccc3c2OCO3)OCCO1
inactive: endpoint: mean survival time, dose: 75.0 mg/kg/injection, schedule: Q01DX001 (ip), vehicle: other 96 % of control | endpoint: mean survival time, dose: 150.0 mg/kg/injection, schedule: Q01DX001 (ip), vehicle: other 91 % of control | endpoint: mean survival time, dose: 300.0 mg/kg/injection, schedule: Q01DX001 (ip), vehicle: other 96 % of control

COC12C(COC(N)=O)C3=C(C(=O)C(C)=C(NC4CONC4=O)C3=O)N1CC1NC12 (centres undefined)
inactive: endpoint: mean survival time, dose: 1.5 mg/kg/injection, schedule: Q01DX001 (ip), vehicle: water 97 % of control | endpoint: mean survival time, dose: 3.0 mg/kg/injection, schedule: Q01DX001 (ip), vehicle: water 98 % of control | endpoint: mean survival time, dose: 6.0 mg/kg/injection, schedule: Q01DX001 (ip), vehicle: water 95 % of control | endpoint: mean survival time, dose: 12.0 mg/kg/injection, schedule: Q01DX001 (ip), vehicle: water 98 % of control | endpoint: mean survival time, dose: 24.0 mg/kg/injection, schedule: Q01DX001 (ip), vehicle: water 97 % of control | endpoint: mean survival time, dose: 50.0 mg/kg/injection, schedule: Q01DX001 (ip), vehicle: distilled water + Tween-80 112 % of control | endpoint: mean survival time, dose: 100.0 mg/kg/injection, schedule: Q01DX001 (ip), vehicle: distilled water + Tween-80 114 % of control

Cc1cc(N(C)C)c(C(C)C)cc1O (tested in a mixture with another compound)
inactive: endpoint: mean survival time, dose: 32.0 micrograms/kg/injection, schedule: Q04DX003 (ip), vehicle: saline 104 % of control | endpoint: mean survival time, dose: 63.0 micrograms/kg/injection, schedule: Q01DX001 (ip), vehicle: saline 112 % of control | endpoint: mean survival time, dose: 63.0 micrograms/kg/injection, schedule: Q04DX003 (ip), vehicle: saline 98 % of control | endpoint: mean survival time, dose: 125.0 micrograms/kg/injection, schedule: Q01DX001 (ip), vehicle: saline 112 % of control | endpoint: mean survival time, dose: 125.0 micrograms/kg/injection, schedule: Q04DX003 (ip), vehicle: saline 101 % of control
